Test: Solubility of the compositions by adding water
Format: physicochemical
Conditions: component weight 100 mg
Procedure: Solubility of the Compositions I, II and III are determined by adding water to the composition and control curcumin (without the Diosgenin polyethylene glycol succinate).

COc1cc(/C=C/C(=O)CC(=O)/C=C/c2ccc(O)c(OC)c2)ccc1O [Control, Curcumin]
Water in ml require to solubilize: >1000 mL
